Patent publication US6638919B2, “Antiviral purine derivatives” (University College Cardiff Consultants Limited, priority 2001, dated 2003)
Structures can show the parent of a compound that is named as a salt.

Tests used:
Type in all cases: cell-based
[1] = test system: CEM cells; test: Toxicity to mock-infected CEM cells (CC50); details: Table III; toxicity to CEM cells; read-out: CC50 CEN
Description: (§1) Then 100 μL of the infected cell suspension was transferred to microtiter plate wells and mixed with 100 μL of the appropriate dilutions of the test compounds.
CC50 CEM: CC50 in μM for toxicity to CEM cells.
CC50 CEM: CC50 μM for toxicity to CEM cells

[2] = test system: MSV; test: Minimum cytotoxic concentration in MSV assay; design: unit not given here; details: Table III
Text: MCC MSV: minimum cytotoxic concentration in MSV essay.

[3] = test system: HIV-2; test: Inhibition of HIV-2 giant cell formation in CEM cells; details: Table III; EC50 for inhibition of HIV-2 in CEM cells; read-out: HIV2 CBM
Description: as §1
HIV1 CEM: EC50 in μM for inhibition of […] in CEM cells.
HIV2 CEM: EC50 in μM for inhibition of HIV-2 in CEM cells

[4] = test system: MSV; test: Inhibition of MSV; details: Table III; inhibition of MSV; read-out: EC50 MSV
Description: EC50 MSV: EC50 μM for inhibition of MSV

[5] = test system: HIV-1; test: Inhibition of HIV-1 giant cell formation in CEM cells; details: Table III; EC50 for inhibition of HIV1 in CEM cells; read-out: HIV1 CBM
Description: as §1
HIV 1 CEM: EC50 in μM for inhibition of HIV1 in CEM cells

Row | Structure (SMILES) | CC50 [1] [nM] | MCCMSV [2] | EC50 [3] [nM] | EC50 [4] [nM] | EC50 [5] [nM]
1 | CC(C)CCOC(=O)C(C)NP(=O)(OC[C@@H]1C=C[C@H](n2cnc3c(NC4CC4)nc(N)nc32)C1)Oc1ccccc1 (stereo partly drawn) [Compound 1674, (1S,4R)-4-(2-amino-6-cyclopropylamino-9H-purin-9-yl)-2-cyclopentene-1-methanol O-(phenyl (3-methylbutyl)oxyalaninyl phosphate)] | 10700 | >4 | 250 | 2040 | –
2 | COC(=O)[C@H](C)NP(=O)(OC[C@@H]1C=C[C@H](n2cnc3c(NC4CC4)nc(N)nc32)C1)Oc1ccc(Br)cc1 (stereo partly drawn) [Compound 1710, (1S,4R)-4-(2-amino-6-cyclopropylamino-9H-purin-9-yl)-2-cyclopentene-1-methanol O-[4-bromophenyl-(methoxy-L-alaninyl)]-phosphate] | 5780 | >0.8 | 49 | 510 | 5.5
3 | COC(=O)[C@@H](C)NP(=O)(OC[C@@H]1C=C[C@H](n2cnc3c(NC4CC4)nc(N)nc32)C1)Oc1ccccc1 (stereo partly drawn) [Compound 1583, (1 S,4R)-4-(2-amino-6-cyclopropyiamino-9H-purin-9-yl)-2-cyclopentene-1-methanol O-[phenyl-(methoxy-D-alaninyl)]-phosphate] | 64300 | – | 4500 | – | 1380
4 | CCCOC(=O)[C@H](C)NP(=O)(OC[C@@H]1C=C[C@H](n2cnc3c(NC4CC4)nc(N)nc32)C1)Oc1ccccc1 (stereo partly drawn) [Compound 1646, (1S,4R)-4-(2-amino-6-cyclopropylamino-9H-purin-9-Sl)-2-cyclopentene-1-methanol O-Phenyl-(n-propoxy-L-alaninyl)-phosphate] | 9000 | >4 | 120 | 2000 | 93
5 | COC(=O)CNP(=O)(OC[C@@H]1C=C[C@H](n2cnc3c(NC4CC4)nc(N)nc32)C1)Oc1ccccc1 (stereo partly drawn) [Compound 1588, (1 S,4R)-4-(2-amino-6-cyclopropylamino-9H-purin-9-yl)-2-cyclopentene-1-methanol O-[phenyl-(methoxy-glycinyl)]-phosphate] | ≥ 100000 | – | 2000 | – | 1780
6 | COC(=O)[C@H](Cc1c[nH]c2ccccc12)NP(=O)(OC[C@@H]1C=C[C@H](n2cnc3c(NC4CC4)nc(N)nc32)C1)Oc1ccccc1 (stereo partly drawn) [Compound 1750, (1S,4R)-4-(2-amino-6-cyclopropylamino-9H-purin-9-yl)-2cyclopentene-1-methanol O-(phenylmethoxy-L-tryptophanyl phosphate)] | 18300 | – | 3670 | – | 3000
7 | C[C@H](NP(=O)(O)OC[C@@H]1C=C[C@H](n2cnc3c(NC4CC4)nc(N)nc32)C1)C(=O)O [Compound 1540, (1S,4R)-4-(2-amino-6-cyclopropylamino-9H-purin-9-yl)-2-cyclopentene-1-methanol O-(L-alaninyl)-phosphate diammonium salt] | 115000 | – | 950 | – | 1200
8 | C[C@H](NP(=O)(OC[C@@H]1C=C[C@H](n2cnc3c(NC4CC4)nc(N)nc32)C1)Oc1ccccc1)C(=O)OCC(C)(C)C (stereo partly drawn) [Compound 1673, (1S ,4R)-442-amino6-cyclopropylamino-9H-purin-9-y)-2-cyclopentene-1-methanol O-(phenyl (2,2-dimethylpropyl)oxyalaninyl phosphate)] | 8070 | >4 | 180 | 2920 | 150
9 | CCOC(=O)C[C@H](NP(=O)(OC[C@@H]1C=C[C@H](n2cnc3c(NC4CC4)nc(N)nc32)C1)Oc1ccccc1)C(=O)OCC (stereo partly drawn) [Compound 1714, (1S,4R)-4-(2-amino-6-cyclopropylamino-9H-purin-9-yl)-2-cyclopeutene-1-methanol O-(phenyldiethoxy-L-aspartyl phosphate)] | 23100 | >20 | 2100 | 7180 | 550
10 | C[C@H](NP(=O)(OC[C@@H]1C=C[C@H](n2cnc3c(NC4CC4)nc(N)nc32)C1)Oc1ccccc1)C(=O)OC1CCCCC1 (stereo partly drawn) [Compound 1707, (1S,4R)-4-(2-amino-6-cyclopropylamino-9H-purin-9-yl)-2-cyclopeniene-1-methanol O-Phenyl-(c-hexyloxy-L-alaninyl)-phosphate] | 10200 | >4 | 250 | 2840 | 330
11 | C[C@H](NP(=O)(OC[C@@H]1C=C[C@H](n2cnc3c(NC4CC4)nc(N)nc32)C1)Oc1ccccc1)C(=O)OC1CCCCCC1 (stereo partly drawn) [Compound 1752, (1S,4R)-4-(2-amino-6-cyclopropylamino-9-H-purin-9-yl)2-cyclopentene-1-methanol O-(phenyl (cycloheptanyl)oxyalaninyl phosphate)] | 6320 | – | 1050 | – | 1300
12 | C[C@H](NP(=O)(OC[C@@H]1C=C[C@H](n2cnc3c(NC4CC4)nc(N)nc32)C1)Oc1ccccc1)C(=O)OCc1ccccc1 (stereo partly drawn) [Compound 1582, (1S,4R)-4-(2-amino-6-cyclopropylamino-9H-purin-9-yl)-2-cyclopentene-1-methanol O-[phenyl-(enzoxy-L-alaninyl)]-phosphate] | 12500 | – | 110 | – | 83
13 | COC(=O)[C@H](Cc1ccccc1)NP(=O)(OC[C@@H]1C=C[C@H](n2cnc3c(NC4CC4)nc(N)nc32)C1)Oc1ccccc1 (stereo partly drawn) [Compound 1585, (1,S,4R)-4-(2-amino-6-cyclopropylamino-9H-purin-9-yl)-2-cyclopentee-1-methain O-[phenyl-(methoxy-L-phenylalaninyl)]-phosphate] | 36100 | – | 2130 | – | 1420
14 | CC[C@H](C)[C@H](NP(=O)(OC[C@@H]1C=C[C@H](n2cnc3c(NC4CC4)nc(N)nc32)C1)Oc1ccccc1)C(=O)OC (stereo partly drawn) [Compound 1751, (1S,4R)-4-(2-amino-6-cyclpropylamino-9H purin-9-yl)-2-cyclopentene-1-methanol O-(phenylmethoxy-L-isoleucinyl phosphate)] | 24200 | – | 5330 | – | 7000
15 | COC(=O)C[C@H](NP(=O)(OC[C@@H]1C=C[C@H](n2cnc3c(NC4CC4)nc(N)nc32)C1)Oc1ccccc1)C(=O)OC (stereo partly drawn) [Compound 1589, (1S,4R)-4-(2-amino-6-cyclopropylamin9H-purin-9-yl)-2-cyclopentene-1-methanol O-[phenyl-(L-asparic acid dimethyl ester)]-phosphate] | 44200 | – | 1900 | – | 1420
16 | COC(=O)CC[C@H](NP(=O)(OC[C@@H]1C=C[C@H](n2cnc3c(NC4CC4)nc(N)nc32)C1)Oc1ccccc1)C(=O)OC (stereo partly drawn) [Compound 1749, (1S,4R)-4-(2-amino6-cyclopropylamino-9H-purin-9-yl)-2-cyclopentene-1-methanol O-(phenyldimethoxy-L-glutamyl phosphate)] | 36900 | – | 5330 | – | 3500
17 | COC(=O)C(C)(C)NP(=O)(OC[C@@H]1C=C[C@H](n2cnc3c(NC4CC4)nc(N)nc32)C1)Oc1ccccc1 (stereo partly drawn) [Compound 1584, (1S,4R)-4-(2-amino-6-cyclopropylamino-9H-purin-9-yl)-2-cyclopentene-1-methanol O-[phenyl-(methoxy-α,adimethylglycinyl)]-phosphate] | 8910 | – | 60 | – | 67
